Data: patent US6632809B2, “Gyrase inhibitors and uses thereof” (Vertex Pharmaceuticals Incorporated, priority 2000, dated 2003)
Values after ≈ are worked out from the molar mass of the structure shown.

Assays:
[1] = test system: test bacteria; assay: Susceptibility Testing in Liquid Media (MIC assay); format: cell-based; conditions: broth dilution, MHB, 35° C. overnight (16 to 20 hr), organism not given; for MIC: read-out: MIC (minimal inhibitory concentration) activity level
Description: Susceptibility Testing in Liquid Media
Compounds of this invention were also tested for antimicrobial activity by susceptibility testing in liquid media. Such assays were performed within the guidelines of the latest NCCLS document governing such practices: “M7-A5 Methods for dilution Antimicrobial Susceptibility Tests for Bacteria that Grow Aerobically; Approved Standard—Fifth Edition (2000)”. Other publications such as “Antibiotics in Laboratory Medicine” (Edited by V. Lorian, Publishers Williams and Wilkins, 1996) provide essential practical techniques in laboratory antibiotic testing. Essentially, several discrete bacterial colonies (3 to 7) from a freshly streaked plate were transferred to an appropriate rich broth medium such as MHB, supplemented where appropriate for the more fastidious organisms. This was grown overnight to high density followed by a 1 or 2-thousand-fold dilution to give an inoculation density of between 5×10^5 and 5×10^6 CFU per mL. Alternatively, the freshly picked colonies can be incubated at 37° C. for about 4 to 8 hrs until the culture equals or exceeds a turbidity of a 0.5 McFarland standard (approximately 1.5×10^8 cells per mL) and diluted to give the same CFU per mL as above. In a more convenient method, the inoculum was prepared using a commercially available mechanical device (the BBL PROMPT System) that involves touching five colonies directly with a wand, containing crosshatch grooves at its bottom, followed by suspension of the bacteria in an appropriate volume of saline. Dilution to the appropriate inoculum cell density was made from this cell suspension. The broth used for testing consists of MHB supplemented with 50 mg per L of Ca^2+ and 25 mg per L of Mg^2+. Standard dilution panels of control antibiotics were made and stored as in the NCCLS standard M7-A5, the dilution range typically being in the 128 μg per mL to 0.015 μg per mL (by 2-fold serial dilution). The test compounds were dissolved and diluted fresh for experimentation on the same day; the same or similar ranges of concentration as above being used. The test compounds and controls were dispensed into a multiwell plate and test bacteria added such that the final inoculation was approximately 5×10^4 CFU per well and the final volume was 100 μL. The plates were incubated at 35° C. overnight (16 to 20 hr) and checked by eye for turbidity or quantitated with a multiwell plate reader. […] Such determinations were also compared to the appropriate tables contained in the above two publications to ensure that the range of antibacterial activity is within the acceptable range for this standardized assay.
The compound numbers correspond to the compound numbers in Table 1.

[2] = target: DNA gyrase (374 kDa Gyr A2B2 subunit from Staphylococcus aureus) (Staphylococcus aureus, UniProt P0A0K8); assay: Gyrase ATPase Assay; format: biochemical; conditions: 10 μM concentration, ATPase assay at 30° C., 0.9 mM ATP, average of duplicate values; for inhibition at 10 µM: read-out: Gyrase Inhibitory Activity (percent inhibition)
DNA gyrase (374 kDa Gyr A2B2 subunit from Staphylococcus aureus), sequence (P0A0K8 whole entry): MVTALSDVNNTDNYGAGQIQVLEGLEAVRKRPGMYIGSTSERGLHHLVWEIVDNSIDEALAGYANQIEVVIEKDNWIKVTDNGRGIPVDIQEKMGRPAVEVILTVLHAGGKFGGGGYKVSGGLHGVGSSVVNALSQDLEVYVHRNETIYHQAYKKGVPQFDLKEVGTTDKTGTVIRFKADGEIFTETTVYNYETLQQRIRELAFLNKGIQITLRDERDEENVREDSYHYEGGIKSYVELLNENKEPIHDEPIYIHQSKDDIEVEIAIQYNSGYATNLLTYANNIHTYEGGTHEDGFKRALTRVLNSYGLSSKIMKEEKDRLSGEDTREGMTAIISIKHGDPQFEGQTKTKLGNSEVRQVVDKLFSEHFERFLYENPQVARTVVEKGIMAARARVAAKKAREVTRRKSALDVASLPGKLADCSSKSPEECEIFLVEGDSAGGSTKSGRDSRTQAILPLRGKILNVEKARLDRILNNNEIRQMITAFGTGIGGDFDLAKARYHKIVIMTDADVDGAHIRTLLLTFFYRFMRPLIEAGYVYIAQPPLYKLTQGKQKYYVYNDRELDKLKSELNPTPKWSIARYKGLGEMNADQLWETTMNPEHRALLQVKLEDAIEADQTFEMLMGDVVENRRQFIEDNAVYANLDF
DNA gyrase (374 kDa Gyr A2B2 subunit from Staphylococcus aureus), sequence (P20831 whole entry, further chain): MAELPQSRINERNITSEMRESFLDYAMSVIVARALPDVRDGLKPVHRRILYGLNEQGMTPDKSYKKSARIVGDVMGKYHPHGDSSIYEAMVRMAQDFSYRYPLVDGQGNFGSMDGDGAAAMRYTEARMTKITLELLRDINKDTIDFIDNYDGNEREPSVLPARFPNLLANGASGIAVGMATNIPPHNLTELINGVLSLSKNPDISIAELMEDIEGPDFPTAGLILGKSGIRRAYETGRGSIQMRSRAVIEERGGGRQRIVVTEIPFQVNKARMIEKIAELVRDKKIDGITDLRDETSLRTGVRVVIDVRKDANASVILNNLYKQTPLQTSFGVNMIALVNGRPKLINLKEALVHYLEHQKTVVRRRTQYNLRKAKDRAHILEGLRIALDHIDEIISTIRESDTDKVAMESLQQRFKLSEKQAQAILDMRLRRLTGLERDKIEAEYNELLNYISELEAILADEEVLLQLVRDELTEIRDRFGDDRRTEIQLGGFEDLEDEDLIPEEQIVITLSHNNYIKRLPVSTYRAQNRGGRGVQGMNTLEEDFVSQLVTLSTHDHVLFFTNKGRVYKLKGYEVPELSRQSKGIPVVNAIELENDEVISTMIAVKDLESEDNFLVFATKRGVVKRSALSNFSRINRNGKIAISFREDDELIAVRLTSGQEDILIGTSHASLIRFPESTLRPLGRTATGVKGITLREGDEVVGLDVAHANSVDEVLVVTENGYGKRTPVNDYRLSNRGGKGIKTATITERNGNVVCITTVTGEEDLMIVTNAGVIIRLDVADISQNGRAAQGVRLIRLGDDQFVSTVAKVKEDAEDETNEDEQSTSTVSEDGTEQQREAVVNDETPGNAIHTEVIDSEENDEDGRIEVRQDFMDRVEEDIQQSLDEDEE
Description: The ATP hydrolysis activity of DNA gyrase was measure by coupling the production of ADP through pyruvate kinase/lactate dehydrogenase to the oxidation of NADH. This method has been described previously (Tamura and Gellert, 1990, J. Biol. Chem., 265, 21342).
ATPase assays are carried out at 30° C. in buffered solutions containing 100 mM TRIS pH 7.6, 1.5 mM MgCl2, 50 mM KCl. The coupling system contains (final concentrations) 2.5 mM phosphoenol pyruvate, 200 μM nicotinamide adenine dinucleotide (NADH), 1 mM DTT, […], and 10 ug/ml lactate dehydrogenase. 40 nanomolar enzyme (374 kDa Gyr A2B2 subunit from Staphylococcus aureus) and a DMSO solution of the inhibitor to a final concentration of 4% are added and the reaction mixture is allowed to incubate for 10 minutes at 30° C. The reaction is then started by the addition of ATP to a final concentration of 0.9 mM and the rate of NADH disappearance at 340 nanometers is measured over the course of 10 minutes. The percent inhibition values are determined from rate versus concentration profiles and are reported as the average of duplicate values.
The compound numbers correspond to the compound numbers in Table 1. Compounds having an activity designated as “A” provided a percent inhibition value below 50 percent; compounds having an activity designated as “B” provided a percent inhibition value between 50 and 75 percent; and compounds having an activity designated as “C” provided a percent inhibition value greater than 75 percent.

| Structure (SMILES) | MIC (minimal inhibitory concentration) activity level [1] | inhibition at 10 µM [2] | MIC [1] | Gyrase Inhibitory Activity (percent inhibition) [2] |
| --- | --- | --- | --- | --- |
| CCNC(=O)Nc1nc2cc(-c3cccnc3)cc(O)c2[nH]1 [Ia-167] | C (provided an MIC of greater than 40 μg/mL) | > 75% |  |  |
| CCNC(=O)Nc1nc2cc(-c3cnc(NC(C)COC)nc3)c(OC)cc2[nH]1 (stereo not drawn) [Ia-146] |  | > 75% | < 10 µg/mL |  |
| CCNC(=O)Nc1nc2cc(-c3cnc(NCc4cccnc4)nc3)ccc2[nH]1 [Ia-98] |  | > 75% | 10 to 40 µg/mL (≈ 25.7 to 103 µM) |  |
| CCNC(=O)Nc1nc2cc(-c3ccc(CNS(C)(=O)=O)cc3)ccc2[nH]1 [Ia-138] |  | > 75% | > 40 µg/mL |  |
| CCNC(=O)Nc1nc2cc(-c3ccc(CNC(C)=O)cc3)ccc2[nH]1 [Ia-139] |  | > 75% | > 40 µg/mL |  |
| CCNC(=O)Nc1nc2cc(-c3ccc(N4CCC(O)C4)nc3)ccc2[nH]1 (stereo not drawn) [Ia-179] |  | > 75% | > 40 µg/mL |  |
| CCNC(=O)Nc1nc2cc(-n3ccc(=O)c(OCc4ccccc4)c3C)ccc2[nH]1 [Ia-160] |  | > 75% | > 40 µg/mL |  |
| CCNC(=O)Nc1nc2nc(-n3cnc(C(=O)OC)c3)ccc2[nH]1 [Ia-184] |  | 50 to 75% | > 40 µg/mL |  |
| CCNC(=O)Nc1nc2cc(-c3cccnc3)c(C)cc2[nH]1 [Ia-133] |  | > 75% | < 10 µg/mL |  |
| CCNC(=O)Nc1nc2cc(-c3ccc(CNC(C)=O)nc3)ccc2[nH]1 [Ia-145] |  | > 75% | 10 to 40 µg/mL (≈ 28.4 to 114 µM) |  |
| CCNC(=O)Nc1nc2cc(-c3cnc(SC)nc3)ccc2[nH]1 [Ia-92] |  | > 75% | < 10 µg/mL |  |
| CCNC(=O)Nc1nc2cc(-c3ccccc3O)ccc2[nH]1 [Ia-165] |  | > 75% | 10 to 40 µg/mL (≈ 33.7 to 135 µM) |  |
| CCNC(=O)Nc1nc2cc(-c3cccc(=O)[nH]3)ccc2[nH]1 [Ia-158] |  | > 75% | > 40 µg/mL |  |
| CCNC(=O)Nc1nc2cc(-c3cccnc3)c(OC)cc2[nH]1 [Ia-42] |  | > 75% | 10 to 40 µg/mL (≈ 32.1 to 128 µM) |  |
| CCNC(=O)Nc1nc2cc(-c3cccnc3)c3c(c2[nH]1)OC(F)(F)O3 [Ia-153] |  | 50 to 75% | > 40 µg/mL |  |
| CCNC(=O)Nc1nc2cc(-c3ccc(CN)cc3)ccc2[nH]1 [Ia-137] |  | > 75% | > 40 µg/mL |  |
| CCNC(=O)Nc1nc2cc(-c3cnc(OC)nc3)c(OC)cc2[nH]1 [Ia-112] |  | > 75% | < 10 µg/mL |  |
| CCNC(=O)Nc1nc2cc(-c3ccc(N4CCCC4)nc3)ccc2[nH]1 [Ia-177] |  | > 75% | > 40 µg/mL |  |
| CCNC(=O)Nc1nc2cc(-c3ccc(CN)nc3)ccc2[nH]1 [Ia-144] |  | > 75% | 10 to 40 µg/mL (≈ 32.2 to 129 µM) |  |

| Structure (SMILES) | MIC (minimal inhibitory concentration) activity level [1] | inhibition at 10 µM [2] | MIC [1] | Gyrase Inhibitory Activity (percent inhibition) [2] |
| --- | --- | --- | --- | --- |
| CCNC(=O)Nc1nc2cc(-c3cnc(OC(C)COC)nc3)c(OC)cc2[nH]1 (stereo not drawn) [Ia-140] |  | > 75% | < 10 µg/mL |  |
| CCCCNC(=O)c1cn(-c2ccc3[nH]c(NC(=O)NCC)nc3c2)cn1 [Ia-186] |  | > 75% | < 10 µg/mL |  |
| CCNC(=O)Nc1nc2cc(-c3ccc(CNS(C)(=O)=O)nc3)ccc2[nH]1 [Ia-154] |  | > 75% | > 40 µg/mL |  |
| CCNC(=O)Nc1nc2cc(-c3cccnc3)ccc2[nH]1 [Ia-118] |  | > 75% | < 10 µg/mL |  |
| CCNC(=O)Nc1nc2cc(-n3cnc(C(=O)NCc4cccnc4)c3)ccc2[nH]1 [Ia-171] |  | > 75% | 10 to 40 µg/mL (≈ 24.7 to 98.9 µM) |  |
| CCNC(=O)Nc1nc2cc(-n3cnc(C(=O)OC)c3)ccc2[nH]1 [Ia-156, 1-[2-(3-Ethyl-ureido)-3H-benzoimidazol-5-yl]-1H-imiazole-4-carboxylic acid methyl ester] |  | > 75% | 10 to 40 µg/mL (≈ 30.5 to 122 µM) |  |
| CSc1ncc(-c2ccc3[nH]c(NC(=O)NC4CCCC4)nc3c2)cn1 [Ia-117] |  | < 50% | > 40 µg/mL |  |
| CCNC(=O)Nc1nc2cc(-c3nnco3)ccc2[nH]1 [Ia-151] |  | > 75% | > 40 µg/mL |  |
| CCNC(=S)Nc1nc2cc(-c3ccccc3)ccc2[nH]1 [Ia-90] |  |  | < 10 µg/mL | C (provided a percent inhibition value greater than 75 percent) |
| CCNC(=O)Nc1nc2cc(-c3ccc(OCCOCC)nc3)ccc2[nH]1 [Ia-197] |  |  | 10 to 40 µg/mL (≈ 27.1 to 108 µM) |  |
| CCNC(=O)Nc1nc2cc(-n3cc(C(=O)O)c4ncccc43)ccc2[nH]1 [Ia-196] |  |  | 10 to 40 µg/mL (≈ 27.4 to 110 µM) |  |
| CCNC(=O)Nc1nc2cc(-c3cccnc3)cc(O)c2[nH]1 [Ia-169] | B (provided an MIC of between 10 and 40 μg/mL) |  |  |  |
| CCNC(=S)Nc1nc2cc(-c3cnc(NCC(=O)OC(C)(C)C)nc3)ccc2[nH]1 [Ia-37] |  | > 75% |  |  |
| CCOC(=O)Nc1nc2cc(-c3cccc(C(=O)O)c3)ccc2[nH]1 [Ia-24] |  | > 75% |  |  |
| CCOC(=O)Nc1nc2cc(-c3cccs3)ccc2[nH]1 [Ia-2] |  | 50 to 75% |  |  |
| CCNC(=O)Nc1nc2cc(-c3cnc(NCCC4CCCN4C)nc3)ccc2[nH]1 (stereo not drawn) [Ia-106] |  | > 75% |  |  |
| CCNC(=O)Nc1nc2cc(-c3cnc(N4CCOCC4)nc3)ccc2[nH]1 [Ia-53] |  | > 75% |  |  |
| CCNC(=O)Nc1nc2cc(-c3ccccc3)cc(Br)c2[nH]1 [Ia-89] |  | > 75% |  |  |
| CCCNc1nc2cc(-c3cccnc3)ccc2[nH]1 [Ia-74] |  | < 50% |  |  |

| Structure (SMILES) | MIC (minimal inhibitory concentration) activity level [1] | inhibition at 10 µM [2] | MIC [1] | Gyrase Inhibitory Activity (percent inhibition) [2] |
| --- | --- | --- | --- | --- |
| CCOC(=O)Nc1nc2cc(-c3cnc(N4CCN(C(=O)OC(C)(C)C)CC4)nc3)ccc2[nH]1 [Ia-69] |  | 50 to 75% |  |  |
| CCNC(=O)Nc1nc2nc(N3CCC(N)C3)ccc2[nH]1 (stereo not drawn) [Ia-198] |  |  | 10 to 40 µg/mL (≈ 34.6 to 138 µM) |  |
| CCOC(=O)Nc1nc2cc(-c3cncc(N)c3)ccc2[nH]1 [Ia-115] |  | < 50% |  |  |
| CCNC(=O)Nc1nc2cc(-c3cnc(N)nc3)c(F)cc2[nH]1 [Ia-131] |  | > 75% |  |  |
| CCOC(=O)Nc1nc2cc(-c3ccc(OC)nc3)ccc2[nH]1 [Ia-18] |  | > 75% |  |  |
| CCCc1cc(-c2ccccc2)cc2nc(NC(=O)OCC)[nH]c12 [Ia-13] |  | < 50% |  |  |
| CCNC(=O)Nc1nc2cc(-c3cnc(N4CCC(O)CC4)nc3)ccc2[nH]1 [Ia-125] |  | > 75% |  |  |
| CCCN(CC1CC1)c1ncc(-c2ccc3[nH]c(NC(=O)NCC)nc3c2)cn1 [Ia-127] |  | > 75% |  |  |
| CCNC(=O)Nc1nc2cc(-c3ccc(CN(C(=O)OC(C)(C)C)C(C)(C)C)nc3)ccc2[nH]1 [Ia-143] |  | > 75% |  |  |
| CCNC(=O)Nc1nc2cc(-c3ccccc3)cc(C)c2[nH]1 [Ia-43] |  | > 75% |  |  |
| CCOC(=O)Nc1nc2cc(-c3cccnc3)cc(Br)c2[nH]1 [Ia-17] |  | > 75% |  |  |
| CCOC(=O)Nc1nc2cc(-c3ccc(OC)cc3)ccc2[nH]1 [Ia-23] |  | > 75% |  |  |
| CCNC(=O)Nc1nc2cc(-c3ccccc3)ccc2[nH]1 [Ia-84, 1-Ethyl-3-(5-phenyl-1H-benzoimidazol-2-yl)-urea] |  | > 75% |  |  |
| CCOC(=O)Nc1nc2cc(-c3cc(F)c(F)cc3F)ccc2[nH]1 [Ia-14] |  | 50 to 75% |  |  |
| CCNC(=O)Nc1nc2cc(-c3cccnc3)cc(F)c2[nH]1 [Ia-103] |  | > 75% |  |  |
| CCOC(=O)Nc1nc2cc(-c3ccccc3)cc(Br)c2[nH]1 [Ia-19] |  | > 75% |  |  |
| CCOC(=O)Nc1nc2cc(-c3cccc(C(=O)OC)c3)ccc2[nH]1 [Ia-81] |  | 50 to 75% |  |  |
| CCNC(=O)Nc1nc2cc(-c3cnc(N4CC(C)CC(C)C4)nc3)ccc2[nH]1 (stereo not drawn) [Ia-109] |  | > 75% |  |  |
